The subject of test [1] is KB. As to the kind of experiment: Cytotoxicity against human KB cells after 72 hrs. Format: functional, cell-based.
The subject of test [2] is Plasmodium falciparum. As to the kind of experiment: Antiplasmodial activity against chloroquine-resistant Plasmodium falciparum FCB1 in human blood as [G-3H]hypoxanthine uptake. In kind it is functional, organism-based.

The structures appear in SMILES notation.

For `C=C(C(=O)O[C@H]1[C@H]2[C@@H](C[C@@H](C)[C@@H]3C=CC(=O)[C@]31C)OC(=O)[C@@H]2C)[C@@H](C)O`, the IC50 came to 50 nM in test [1] and 410 nM in test [2].
`C=C1C(=O)O[C@@H]2C[C@@H](C)[C@@H]3C=CC(=O)[C@@]3(C)[C@@H](OC(=O)C(=C)[C@@H](C)O)[C@H]12`: the IC50 in test [1] was 330 nM; in test [2], 1000 nM.
As for `C=C1C(=O)O[C@@H]2C[C@@H](C)[C@@H]3C=CC(=O)[C@@]3(C)[C@@H](OC(=O)/C(=C\C)CO)[C@H]12`, the IC50 in test [1] is 930 nM; in test [2] it was 190 nM.
The compound `COc1cccc2c1C(=O)c1c(O)c3c(c(O)c1C2=O)C[C@@](O)(C(=O)CO)C[C@@H]3O[C@H]1C[C@H](N)[C@H](O)[C@H](C)O1` [DOXORUBICIN] came in with an IC50 in test [1] of 270 nM.
